The source of these data is patent US6989389B2, “Aryl ether substituted imidazoquinolines” (3M Innovative Properties Co., priority 2000, dated 2006).

In the assay the test system is Peripheral blood mononuclear cells (PBMC). Put plainly: Cytokine Induction in Human Cells (in vitro human blood cell system, IFN and TNF secreted into culture media). Type of assay: cell-based. Details: key to Lowest Effective Concentration (μM) Tumor Necrosis Factor / Lowest Effective Concentration (μM) Interferon: *: no induction was seen at any of the tested concentrations. The settings on record: 18 to 24 hours, tested 30-0.014 μM. The source says:
An in vitro human blood cell system is used to assess cytokine induction. Activity is based on the measurement of interferon and tumor necrosis factor (α) (IFN and TNF, respectively) secreted into culture media as described by Testerman et. al. In “Cytokine Induction by the Immunomodulators Imiquimod and S-27609”, Journal of Leukocyte Biology, 58, 365-372 (September, 1995).
Whole blood from healthy human donors is collected by venipuncture into EDTA vacutainer tubes. Peripheral blood mononuclear cells (PBMC) are separated from whole blood by density gradient centrifugation using Histopaque®-1077. Blood is diluted 1:1 with Dulbecco's Phosphate Buffered Saline (DPBS) or Hank's Balanced Salts Solution (HBSS). The PBMC layer is collected and washed twice with DPBS or HBSS and resuspended at 4×10^6 cells/mL in RPMI complete. The PBMC suspension is added to 48 well flat bottom sterile tissue culture plates (Costar, Cambridge, Mass. or Becton Dickinson Labware, Lincoln Park, N.J.) containing an equal volume of RPMI complete media containing test compound.
The compounds are solubilized in dimethyl sulfoxide (DMSO). The DMSO concentration should not exceed a final concentration of 1% for addition to the culture wells. The compounds are generally tested at concentrations ranging from 30-0.014 μM.
The solution of test compound is added at 60 μM to the first well containing RPMI complete and serial 3 fold dilutions are made in the wells. The PBMC suspension is then added to the wells in an equal volume, bringing the test compound concentrations to the desired range (30-0.014 μM). The final concentration of PBMC suspension is 2×10^6 cells/mL. The plates are covered with sterile plastic lids, mixed gently and then incubated for 18 to 24 hours at 37° C. in a 5% carbon dioxide atmosphere.
Following incubation the plates are centrifuged for 10 minutes at 1000 rpm (˜200×g) at 4° C. The cell-free culture supernatant is removed with a sterile polypropylene pipet and transferred to sterile polypropylene tubes. Samples are maintained at −30 to −70° C. until analysis. The samples are analyzed for interferon (α) by ELISA and for tumor necrosis factor (α) by ELISA or IGEN Assay.
Interferon (α) concentration is determined by ELISA using a Human Multi-Species kit from PBL Biomedical Laboratories, New Brunswick, N.J. Results are expressed in pg/mL.
Tumor necrosis factor (α) (TNF) concentration is determined using ELISA kits available from Biosource International, Camarillo, Calif. Alternately, the TNF concentration can be determined by Origen® M-Series Immunoassay and read on an IGEN M-8 analyzer from IGEN International, Gaithersburg, Md. The immunoassay uses a human TNF capture and detection antibody pair from Biosource International, Camarillo, Calif. Results are expressed in pg/mL.
The table below lists the lowest concentration found to induce interferon and the lowest concentration found to induce tumor necrosis factor for each compound.

Setting [1] is: Homo sapiens, PBMC, lowest concentration found to induce interferon (α), ELISA, read-out: Lowest Effective Concentration (μM) Interferon.
[2] abbreviates: lowest concentration found to induce tumor necrosis factor (α), ELISA or IGEN assay.
Where [3] appears, read: lowest concentration found to induce interferon (α), ELISA.
Where [4] appears, read: Homo sapiens, PBMC, lowest concentration found to induce tumor necrosis factor (α), ELISA or IGEN assay, read-out: Lowest Effective Concentration (μM) Tumor Necrosis Factor.

Structures can show the parent of a compound that is named as a salt. Where two headings read alike, the source gives them in different places.

On to `Cc1cccc(COCCOCn2cnc3c(N)nc4ccccc4c32)c1` [Example 86], for which the minimal effective concentration under setting [1] worked out at 0.37 µM. The “Lowest Effective Concentration (μM) Tumor Necrosis Factor” value under setting [2] was “*”.
As to `Cc1ccc(COC(C)(C)Cn2cnc3c(N)nc4ccccc4c32)cc1` [Example 36], the “Lowest Effective Concentration (μM) Interferon” value under setting [3] is “*”. Further, the “Lowest Effective Concentration (μM) Tumor Necrosis Factor” value under setting [2] is recorded as “*”.
As for `Cc1ccc(COCC(C)n2cnc3c(N)nc4ccccc4c32)cc1` (stereo not drawn) [Example 72], the minimal effective concentration under setting [1] came out at 1.11 µM. The “Lowest Effective Concentration (μM) Tumor Necrosis Factor” value under setting [2] was “*”.
Consider `CCc1nc2c(N)nc3ccccc3c2n1C(CC)COCc1ccccc1` (stereo not drawn) [Example 82], for which the “Lowest Effective Concentration (μM) Interferon” value under setting [3] is reported as “*”. The “Lowest Effective Concentration (μM) Tumor Necrosis Factor” value under setting [2] is given as “*”.
Take `CC(C)C(COCc1cccc(C(F)(F)F)c1)n1cnc2c(N)nc3ccccc3c21` (stereo not drawn) [Example 63]: the “Lowest Effective Concentration (μM) Interferon” value under setting [3] is “*”. The “Lowest Effective Concentration (μM) Tumor Necrosis Factor” value under setting [2] was “*”.
`CCC(COCc1ccc(C)cc1)n1cnc2c(N)nc3ccccc3c21` (stereo not drawn) [Example 49]: under setting [1], the minimal effective concentration turned out to be 0.04 µM. The “Lowest Effective Concentration (μM) Tumor Necrosis Factor” value under setting [2] was “*”.
The like results for `CCC(COCc1cccc(C(F)(F)F)c1)n1cnc2c(N)nc3ccccc3c21` (stereo not drawn) [Example 26] were, in that order, 0.12 µM and “*”.
The like results for `C[C@@H](COCc1ccc(C(C)(C)C)cc1)Cn1cnc2c(N)nc3ccccc3c21` [Example 111] were, in that order, 3.33 µM and “*”.
On to `CC[C@H](COCCCc1ccccc1)n1cnc2c(N)nc3ccccc3c21` [Example 109, 1-{(1R)-1-[(3-Phenylpropoxy)methyl]propyl}-1H-imidazo[4,5-c]quinolin-4-amine], for which the minimal effective concentration by setting is: under setting [1], 0.01 µM; under setting [4], 0.37 µM.
The like results for `CCCCc1nc2c(N)nc3c(c2n1CCOCc1cccc(C(F)(F)F)c1)CCCC3` [Example 92] were, in that order, 3.33 µM and 3.33 µM.
Turning to `Cc1ccc(COCCOCn2cnc3c(N)nc4ccccc4c32)cc1` [Example 85], the minimal effective concentration under setting [1] turned out to be 0.37 µM. Also, the “Lowest Effective Concentration (μM) Tumor Necrosis Factor” value under setting [2] is recorded as “*”.
Taken in the same sequence, the figures for `Nc1nc2ccccc2c2c1ncn2COCCOCc1ccccc1` [Example 84] were 0.37 µM and “*”.
Regarding `COC(=O)c1ccc(COCC(C(C)C)n2cnc3c(N)nc4ccccc4c32)cc1` (stereo not drawn) [Example 66], the “Lowest Effective Concentration (μM) Interferon” value under setting [3] is listed as “*”. In addition, the “Lowest Effective Concentration (μM) Tumor Necrosis Factor” value under setting [2] is given as “*”.
With `CCOCc1nc2c(N)nc3ccccc3c2n1CCOCCCCCCOCCCCc1ccccc1` [Example 20, 2-(Ethoxymethyl)-1-(2-{[6-(4-phenylbutoxy)hexyl]oxy}ethyl)-1H-imidazo[4,5-c]quinoline-4-amine], under setting [3], the “Lowest Effective Concentration (μM) Interferon” value is “*”. Also, the “Lowest Effective Concentration (μM) Tumor Necrosis Factor” value under setting [2] is listed as “*”.
Turning to `CCCCc1nc2c(N)nc3c(c2n1CCOCc1cccc(Cl)c1)CCCC3` [Example 89], the minimal effective concentration turned out to be 0.37 µM under setting [1] and 10 µM under setting [4].
As for `CC(C)(Cn1cnc2c(N)nc3ccccc3c21)OCc1ccccc1C#N` [Example 39], under setting [1], the minimal effective concentration was determined as 1.11 µM. In addition, the “Lowest Effective Concentration (μM) Tumor Necrosis Factor” value under setting [2] is recorded as “*”.
The like results for `CC(C)C(COCc1ccc(Cl)cc1)n1cnc2c(N)nc3ccccc3c21` (stereo not drawn) [Example 60] were, in that order, 1.11 µM and “*”.
The like results for `Cc1cccc(COCCCCn2cnc3c(N)nc4ccccc4c32)c1` [Example 76] were, in that order, 1.11 µM and “*”.
Consider `Nc1nc2ccccc2c2c1ncn2CCOCCCc1ccccc1C(=O)O` [Example 13, 2-{3-[2-(4-Amino-1H-imidazo[4,5-c]quinolin-1-yl)ethoxy]propyl}benzoic acid trifluoroacetate], for which the minimal effective concentration turned out to be 10 µM under setting [1] and 10 µM under setting [4].
On to `CC(C)C(COCc1ccc(C#N)cc1)n1cnc2c(N)nc3ccccc3c21` (stereo not drawn) [Example 64], for which the minimal effective concentration under setting [1] worked out at 3.33 µM. The “Lowest Effective Concentration (μM) Tumor Necrosis Factor” value under setting [2] is “*”.
In the case of `CC(C)C(COc1ccccc1[N+](=O)[O-])n1cnc2c(N)nc3ccccc3c21` (stereo not drawn) [Example 57], the minimal effective concentration under setting [4] is 30 µM. For the same compound, the “Lowest Effective Concentration (μM) Interferon” value under setting [3] is listed as “*”.
Regarding `Cc1cccc(COC(Cn2cnc3c(N)nc4ccccc4c32)c2ccccc2)c1` (stereo not drawn) [Example 32], the minimal effective concentration under setting [1] came out at 10 µM. Further, under setting [2], the “Lowest Effective Concentration (μM) Tumor Necrosis Factor” value was “*”.
For the compound `Nc1nc2ccccc2c2c1ncn2CCOCCCc1ccccc1` [Example 22, 1-[2-(3-Phenylpropoxy)ethyl]-1H-imidazo[4,5-c]quinolin-4-amine], the minimal effective concentration is, setting by setting: under setting [1], 0.12 µM; under setting [4], 0.37 µM.
The like results for `CN(C)c1ccc(CCCOCCn2cnc3c(N)nc4ccccc4c32)cc1` [Example 114, 1-(2-{3-[4-(Dimethylamino)phenyl]propoxy}ethyl)-1H-imidazo[4,5-c]quinolin-4-amine] were, in that order, 0.12 µM and 0.37 µM.
In the case of `Nc1nc2ccccc2c2c1ncn2CC(OCCCCOc1ccccc1)c1ccccc1` (stereo not drawn) [Example 79], the “Lowest Effective Concentration (μM) Interferon” value under setting [3] is “*”. The “Lowest Effective Concentration (μM) Tumor Necrosis Factor” value under setting [2] is reported as “*”.
With `C#CCOCCn1c(CCOC)nc2c(N)nc3ccccc3c21` [Example 144, 2-(2-Methoxyethyl)-1-[2-(prop-2-ynyloxy)ethyl]-1H-imidazo[4,5-c]quinolin-4-amine], the minimal effective concentration reads like this: under setting [1], 0.01 µM; under setting [4], 0.04 µM.
Take `Nc1nc2ccccc2c2c1ncn2CCCCOCc1ccccc1` [Example 75]: the “Lowest Effective Concentration (μM) Interferon” value under setting [3] was “*”. The “Lowest Effective Concentration (μM) Tumor Necrosis Factor” value under setting [2] is recorded as “*”.
With `Nc1ccccc1CCCOCCn1cnc2c(N)nc3ccccc3c21` [Example 18, 1-{2-[3-(2-Aminophenyl)propoxy]ethyl}-1H-imidazo[4,5-c]quinolin-4-amine trifluoroacetate], the minimal effective concentration was 0.12 µM under setting [1] and 1.11 µM under setting [4].
As to `Cc1ccc([N+](=O)[O-])c(OCC(C(C)C)n2cnc3c(N)nc4ccccc4c32)c1` (stereo not drawn) [Example 55], under setting [3], the “Lowest Effective Concentration (μM) Interferon” value was “*”. The “Lowest Effective Concentration (μM) Tumor Necrosis Factor” value under setting [2] is “*”.
As to `CCC(COCc1ccc(C#N)cc1)n1cnc2c(N)nc3ccccc3c21` (stereo not drawn) [Example 46], the minimal effective concentration reads like this: (lowest concentration found to induce interferon (α), ELISA, read-out: Lowest Effective Concentration (μM) Interferon) 0.01 µM; (lowest concentration found to induce tumor necrosis factor (α), ELISA or IGEN assay, read-out: Lowest Effective Concentration (μM) Tumor Necrosis Factor) 3.33 µM.
Consider `Nc1nc2ccccc2c2c1ncn2CCCCOCc1ccc(C(F)(F)F)cc1` [Example 78], for which the “Lowest Effective Concentration (μM) Interferon” value under setting [3] is given as “*”. The “Lowest Effective Concentration (μM) Tumor Necrosis Factor” value under setting [2] was “*”.
For the compound `CC(C)C(COCc1cccc(C#N)c1)n1cnc2c(N)nc3ccccc3c21` (stereo not drawn) [Example 65], the minimal effective concentration under setting [1] stood at 1.11 µM. For the same compound, the “Lowest Effective Concentration (μM) Tumor Necrosis Factor” value under setting [2] is “*”.
Taken in the same sequence, the figures for `Nc1nc2ccccc2c2c1ncn2CCOCCCc1cccc(C(=O)O)c1` [Example 12, 3-{3-[2-(4-Amino-1H-imidazo[4,5-c]quinolin-1-yl)ethoxy]propyl}benzoic acid bis(trifluoroacetate)] were 10 µM and “*”.
